Data published in ChEMBL document CHEMBL1201862, “PubChem BioAssay data set” (2004).
The source made the active and inactive calls.

What was measured:
Assay type in all cases: functional
[1] = biological target: T1, Apoptotic protease-activating factor 1 (Homo sapiens, UniProt O14727)
T1 sequence (O14727 whole entry): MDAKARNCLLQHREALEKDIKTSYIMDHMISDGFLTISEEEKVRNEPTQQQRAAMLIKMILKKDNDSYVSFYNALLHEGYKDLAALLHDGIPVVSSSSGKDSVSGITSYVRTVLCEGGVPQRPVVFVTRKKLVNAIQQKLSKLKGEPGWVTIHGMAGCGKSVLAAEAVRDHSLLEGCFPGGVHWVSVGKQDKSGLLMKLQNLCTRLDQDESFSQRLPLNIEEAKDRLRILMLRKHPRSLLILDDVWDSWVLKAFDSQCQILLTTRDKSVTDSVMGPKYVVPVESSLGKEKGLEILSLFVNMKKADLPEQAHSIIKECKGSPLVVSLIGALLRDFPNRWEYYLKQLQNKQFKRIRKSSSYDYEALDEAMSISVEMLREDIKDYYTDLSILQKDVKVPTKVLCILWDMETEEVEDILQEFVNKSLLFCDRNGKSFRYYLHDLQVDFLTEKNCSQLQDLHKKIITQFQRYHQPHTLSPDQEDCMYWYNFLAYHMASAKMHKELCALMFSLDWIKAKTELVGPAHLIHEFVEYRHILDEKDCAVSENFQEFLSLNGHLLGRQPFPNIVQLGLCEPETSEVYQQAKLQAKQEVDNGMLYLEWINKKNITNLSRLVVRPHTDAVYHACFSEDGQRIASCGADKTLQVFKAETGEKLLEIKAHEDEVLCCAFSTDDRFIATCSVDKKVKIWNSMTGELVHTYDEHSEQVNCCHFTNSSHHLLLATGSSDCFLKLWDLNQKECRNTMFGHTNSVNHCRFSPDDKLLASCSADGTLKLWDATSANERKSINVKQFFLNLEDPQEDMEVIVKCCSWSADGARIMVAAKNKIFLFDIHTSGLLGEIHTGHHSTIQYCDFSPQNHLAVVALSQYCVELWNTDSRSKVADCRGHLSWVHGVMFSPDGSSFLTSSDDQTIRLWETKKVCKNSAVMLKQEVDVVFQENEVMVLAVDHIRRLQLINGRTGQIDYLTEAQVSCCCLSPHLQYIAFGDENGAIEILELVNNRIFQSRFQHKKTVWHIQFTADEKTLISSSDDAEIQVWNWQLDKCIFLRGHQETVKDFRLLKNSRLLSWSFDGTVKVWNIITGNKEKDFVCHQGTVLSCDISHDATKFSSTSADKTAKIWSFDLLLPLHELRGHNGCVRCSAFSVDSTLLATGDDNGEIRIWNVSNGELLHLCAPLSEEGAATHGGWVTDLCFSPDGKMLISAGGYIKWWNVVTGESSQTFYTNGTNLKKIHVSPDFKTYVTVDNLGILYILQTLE

[2] = biological target: T2, Replicative DNA helicase DnaB (Mycobacterium tuberculosis, UniProt P9WMR3); assay: DnaB intein splicing inhibitors, dose response, biochemical, cell-free fluorescence (AID 449749)
T2 sequence (P9WMR3 whole entry): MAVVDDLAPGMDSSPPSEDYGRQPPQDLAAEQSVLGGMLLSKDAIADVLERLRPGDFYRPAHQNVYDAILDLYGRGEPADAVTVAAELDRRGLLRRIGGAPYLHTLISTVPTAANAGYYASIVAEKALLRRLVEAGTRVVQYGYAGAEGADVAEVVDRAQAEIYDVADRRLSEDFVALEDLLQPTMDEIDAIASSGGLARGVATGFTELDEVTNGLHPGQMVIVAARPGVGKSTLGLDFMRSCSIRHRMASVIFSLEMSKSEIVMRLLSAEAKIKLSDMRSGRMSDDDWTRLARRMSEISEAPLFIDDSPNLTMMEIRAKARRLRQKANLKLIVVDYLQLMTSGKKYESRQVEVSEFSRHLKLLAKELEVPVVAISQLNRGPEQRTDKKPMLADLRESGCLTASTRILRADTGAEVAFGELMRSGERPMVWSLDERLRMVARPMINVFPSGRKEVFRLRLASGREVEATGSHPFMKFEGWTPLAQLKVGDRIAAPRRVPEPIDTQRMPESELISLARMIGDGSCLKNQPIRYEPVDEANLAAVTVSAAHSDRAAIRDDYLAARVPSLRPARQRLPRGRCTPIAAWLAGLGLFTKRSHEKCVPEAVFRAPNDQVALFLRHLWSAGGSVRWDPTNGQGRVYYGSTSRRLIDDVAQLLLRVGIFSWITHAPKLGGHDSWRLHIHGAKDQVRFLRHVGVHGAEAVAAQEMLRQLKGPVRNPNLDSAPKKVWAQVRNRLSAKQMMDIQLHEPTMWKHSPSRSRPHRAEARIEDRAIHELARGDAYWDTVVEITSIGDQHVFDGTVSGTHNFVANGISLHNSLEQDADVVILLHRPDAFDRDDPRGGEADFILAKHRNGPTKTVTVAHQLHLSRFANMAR

Protein RecA = biological target: T3, Protein RecA (Mycobacterium tuberculosis, UniProt P9WHJ3); assay: Fluorescence Cell-Free Homogeneous Dose Retest to Identify Inhibitors of RecA-Intein Splicing Activity. [Related pubchem assays (depositor defined):AID2097, AID2223, AID489010, AID492950]
T3 sequence (P9WHJ3 whole entry): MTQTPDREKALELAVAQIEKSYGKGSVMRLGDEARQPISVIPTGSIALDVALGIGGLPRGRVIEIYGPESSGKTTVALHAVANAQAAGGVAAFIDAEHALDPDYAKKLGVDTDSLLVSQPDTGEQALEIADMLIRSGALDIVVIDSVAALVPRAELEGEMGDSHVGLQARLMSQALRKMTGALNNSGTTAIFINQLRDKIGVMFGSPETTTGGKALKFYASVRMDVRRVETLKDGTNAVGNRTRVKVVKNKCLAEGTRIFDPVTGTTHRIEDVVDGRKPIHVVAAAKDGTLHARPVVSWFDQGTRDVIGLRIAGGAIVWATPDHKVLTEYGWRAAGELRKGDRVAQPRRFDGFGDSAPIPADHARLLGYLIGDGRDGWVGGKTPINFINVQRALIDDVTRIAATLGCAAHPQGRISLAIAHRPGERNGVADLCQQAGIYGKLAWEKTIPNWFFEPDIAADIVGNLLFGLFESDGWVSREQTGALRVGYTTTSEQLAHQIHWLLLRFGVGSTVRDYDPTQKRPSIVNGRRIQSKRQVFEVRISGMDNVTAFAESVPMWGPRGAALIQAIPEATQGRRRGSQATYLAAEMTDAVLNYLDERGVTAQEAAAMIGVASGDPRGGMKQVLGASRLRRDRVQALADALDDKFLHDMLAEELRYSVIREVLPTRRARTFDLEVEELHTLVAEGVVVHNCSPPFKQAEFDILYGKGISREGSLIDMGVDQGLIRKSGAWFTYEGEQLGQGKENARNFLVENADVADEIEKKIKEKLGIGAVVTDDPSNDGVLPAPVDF

Row | SMILES | IC50 [1] | AC50 [2] | EC50 (Protein RecA)
1 | O=C(c1ccccc1)c1coc2c1C(=O)c1ccccc1C2=O | 15 µM (active) |  | 
2 | CCOC(=O)C1=C(c2ccccc2)N=C(N)NC1c1ccc(OCc2ccc(Cl)cc2)c(OC)c1 (stereo not given) | 14.6 µM (active) | 8.68 µM (active) | 14.3 µM (active)
3 | CCOC(=O)c1c(C)oc2c1c(/C=N/CCC(=O)O)c(O)c1ccccc12 | 12.3 µM (active) | > 380 µM (inactive) | 0.39 µM (active)
4 | CCOC(=O)c1c(C)[nH]c2c1-c1ccccc1C(=O)C2=O |  | 1.34 µM (active) | 1.82 µM (active)
5 | COc1ccc2c(c1)CCC(/C=N/c1ccc3c(c1)OCO3)=C2O | 17.4 µM (active) |  | 
